Reference: the supplement of paper PMC8967900

What was measured:
Experiment in all cases: selective drug sensitivity score (sDSS, relative to normal bone marrow) (sDSS (score)); higher = more potent and effective on the cell line relative to normal bone marrow cells
Details in all cases: 72 h
P30-OHKUBO = system: P30-OHKUBO
HPB-ALL = system: HPB-ALL
HAL-01 = system: HAL-01
MOLT-14 = system: MOLT-14
MN-60 = system: MN-60
KASUMI-10 = system: KASUMI-10
SEM cells = system: SEM cells
380 = system: 380
JURKAT = system: JURKAT
NALL-1 = system: NALL-1
LC4-1 = system: LC4-1
DND-41 = system: DND-41
P12-ICHIKAWA = system: P12-ICHIKAWA
TANOUE = system: TANOUE
RCH-ACV = system: RCH-ACV
COG-LL-319h = system: COG-LL-319h
MHH-CALL-3 = system: MHH-CALL-3
KASUMI-9 = system: KASUMI-9
ALL-SIL = system: ALL-SIL
COG-LL-394h = system: COG-LL-394h
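Further: ALL cell lines in 384-well plates, five doses spanning 10,000-fold, each plate scaled between vehicle and 100 µmol/L benzalkonium chloride controls, sDSS an adapted area-under-curve metric.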

SMILES	selective drug sensitivity score (P30-OHKUBO)	selective drug sensitivity score (HPB-ALL)	selective drug sensitivity score (HAL-01)	selective drug sensitivity score (MOLT-14)	selective drug sensitivity score (MN-60)	selective drug sensitivity score (KASUMI-10)	selective drug sensitivity score (SEM cells)	selective drug sensitivity score 380	selective drug sensitivity score (JURKAT)	selective drug sensitivity score (NALL-1)	selective drug sensitivity score (LC4-1)	selective drug sensitivity score (DND-41)	selective drug sensitivity score (P12-ICHIKAWA)	selective drug sensitivity score (TANOUE)	selective drug sensitivity score (RCH-ACV)	selective drug sensitivity score (COG-LL-319h)	selective drug sensitivity score (MHH-CALL-3)	selective drug sensitivity score (KASUMI-9)	selective drug sensitivity score (ALL-SIL)	selective drug sensitivity score (COG-LL-394h)
O=c1sn(-c2cccc3ccccc23)c(=O)n1Cc1ccccc1 [Tideglusib] (top concentration 3000 nM)	-0.3	-0.3	-0.3	-0.3	-0.3	0.3	-0.3	-0.3	-0.3	-0.3	-0.3	3.4	-0.3	-0.3	-0.3	-0.3	-0.3	-0.3	3.7	-0.3
COc1cc2nccc(Oc3ccc(NC(=O)Nc4cc(C)on4)c(Cl)c3)c2cc1OC [Tivozanib] (top concentration 10000 nM)	4.56	-0.44	-0.74	4.46	0.66	2.96	4.76	-3.64	0.96	-1.74	5.96	0.36	2.66	-3.64	10.9	12.6	-3.64	2.46	27	1.46
Cc1cc(Nc2cc(N3CCN(C)CC3)nc(Sc3ccc(NC(=O)C4CC4)cc3)n2)n[nH]1 [Tozasertib] (top concentration 10000 nM)	22.2	7.46	8.36	20.9	-0.74	15.6	22.3	19.2	1.76	19.8	20.6	0.36	22.8	-6.64	17.9	19.2	9.66	18.4	22.4	3.36
CC1=C(/C=C/C(C)=C/C=C/C(C)=C/C(=O)O)C(C)(C)CCC1 [Tretinoin] (top concentration 10000 nM)	-2.4	-1.7	1.2	-2.4	-2.4	-1.8	0	1.7	-2.4	-2.4	-2.4	-2.4	-2.4	-2.4	-2.4	-2.4	-1.2	3.4	-2.4	-2.4
COC(=O)c1ccc2c(c1)[nH]c1ncnc(NCCCN3CCCCC3)c12 [UM729] (top concentration 10000 nM)	1.44	0.64	-0.06	3.94	1.04	2.74	2.14	5.74	-0.06	-0.06	1.54	0.64	-0.06	-0.06	3.24	-0.06	0.54	2.44	1.44	4.34
COc1cc2c(NC3CCN(C(C)C)CC3)nc(N3CCC(F)(F)CC3)nc2cc1OCCCN1CCCC1 [UNC0642] (top concentration 10000 nM)	2.06	-2.84	-3.54	-1.24	-3.74	-1.64	-0.14	0.86	-3.64	-0.74	-1.14	5.56	-0.14	-3.74	2.56	-1.44	-1.64	0.76	-0.04	2.76
O=C(c1ccc(C(=O)N2CCC(N3CCCC3)CC2)c(Nc2ccccc2)c1)N1CCC(N2CCCC2)CC1 [UNC1215] (top concentration 10000 nM)	0	0	0	0	0	0	0	0	0	0	0	0	0	0	0	0	0	0	0.4	0
CCCC(CCC)C(=O)O [Valproic_acid] (top concentration 1000000 nM)	0	0	0	0	0	0	0	0	0	0	0	0	0	0	0	0	0	0	0	0
Clc1ccc(Nc2nnc(Cc3ccncc3)c3ccccc23)cc1 [Vatalanib] (top concentration 10000 nM)	0	0	0	0	0.1	0	0	0	0	0	0	0	0	0	0	0	0	0	0.1	0
CCCS(=O)(=O)Nc1ccc(F)c(C(=O)c2c[nH]c3ncc(-c4ccc(Cl)cc4)cc23)c1F [Vemurafenib] (top concentration 10000 nM)	3.86	-0.44	0.16	2.66	-1.14	-0.84	3.26	-1.14	2.26	-0.34	3.56	3.66	4.16	-1.14	3.36	0.36	-1.14	1.66	3.06	-1.14
